Patent US4103025A, “Novel terpenes” (Inverni Della Beffa S.p.A., priority 1974, dated 1978)

How the values were obtained:
[1] = Relative solubility in chlorinated hydrocarbon and aqueous solvents; format: physicochemical; settings: chlorinated hydrocarbon solvents versus water/aqueous solvents
[2] = test system: Carragenin-induced oedema; assay: Anti-inflammatory activity against carragenin-induced oedema in rats, intraperitoneal administration; format: in vivo; settings: for Volume of the oedema (Average ± S.D.): maximum volume after 3 hours
Experimental: (§1) Anti-inflammatory Activity Against Carragenin-induced Oedema in Rats
(§2) The anti-inflammatory activities of sericoside and sericic acid were determined by measuring the extent to which the oedema caused by sub-plantar administration of carragenin to rats could be inhibited by prior oral and intraperitoneal administration of the substances.
(1) Administration endoperitoneally 30 minutes prior to the injection of
(2) Maximum volume measured after 3 hours.

[3] = test system: Gastric ulcer induced by Shay's method; assay: Anti-ulcer activity - gastric ulcer in rats induced by Shay's method; format: in vivo; settings: for Diminution of the ulcer index compared with the controls: 200 mg/kg orally five times; for Number of ulcers of class I / Number of ulcers of class II / Number of ulcers of class III / Number of ulcers of class IV / Number of ulcers of class V: 13 animals; for Percentage ulcer variation in relation to controls: Table 1; for Ulcer Index: controls 75; for Product of the number of ulcers and the numerical value attributed to the class, class I / Product of the number of ulcers and the numerical value attributed to the class, class II / Product of the number of ulcers and the numerical value attributed to the class, class III / Product of the number of ulcers and the numerical value attributed to the class, class IV / Product of the number of ulcers and the numerical value attributed to the class, class V: in parentheses
Experimental: Anti-ulcer activity - Gastric Ulcer in the rats induced by Shay's method
The anti-ulcer activity of sericic acid and sericoside was determined by administering the compounds to rats in which gastric ulcers were induced by Shay's method. The compounds were administered at the dose of 200 mg./kg. orally five times, at 42, 30, 25 and 6 hours before tying of the pylorus and immediately after the operation and as shown in Table 1 diminished the ulcer index by 48 and 45 per cent respectively, compared with the controls.
^(1) Doses administered orally 5 times, 42, 30, 25 and 6 hours prior
to and immediately after the tying of the pylorus.
^(2) In parentheses the product of the number of ulcers and the
numerical value attributed to the individual classes according to the
individual classes according to the evaluation criterion of T. O.
Keyrilainen and M. K. Paasonen (Acta Pharmacol. et. Toxicol. 13, 22, 1957

[4] = test system: Ultra-violet ray erythema; assay: Activity against ultra-violet ray erythema in guinea pigs (method of Winder et al.); format: in vivo, male albino guinea pigs; settings: for Erythema Score, 2 h / Erythema Score, 4 h / Erythema Score, 6 h / Erythema Score, 8 h / Erythema Score, 22 h: 5% gel (200 mg) one hour prior to irradiation; for Erythema Score, 2 h: 0 = no erythema, 0.5 = moderate reddening, 1 = marked reddening, 2 = obvious erythema, controls 1.15 ± 0.17; for Erythema Score, 4 h: controls 2.40 ± 0.30; for Erythema Score, 6 h: controls 2.55 ± 0.34; for Erythema Score, 8 h: controls 2.35 ± 0.18; for Erythema Score, 22 h: controls 1.05 ± 0.23; for Percentage inhibition of erythema compared with the controls, 2 h / Percentage inhibition of erythema compared with the controls, 4 h / Percentage inhibition of erythema compared with the controls, 6 h / Percentage inhibition of erythema compared with the controls, 8 h / Percentage inhibition of erythema compared with the controls, 22 h: 5% gel (200 mg), in parentheses
Experimental: Activity Against Ultra-Violet Ray Erythema
Ultra-violet ray erythema in guinea pigs was effected in accordance with the method of Winder et al. (Arch. Int. Pharmacodyn, 106, 261, 1968).
Sericoside and sericic acid were applied to the depilated skin of male albino guinea pigs (average weight 300 - 400 g) in the form of a 5% gel (using 200 mg. thereof) one hour prior to irradiation. The animals were depilated 18 hours prior to the irradiation and irradiated for 3 minutes with a 500 W. mercury vapor lamp at a distance of 18 cms.

[5] = LD50 in mice (intraperitoneal); settings: mouse, in vivo, ip, intraperitoneal administration
Description: The LD50 in mice (as determined with intraperitoneal administration) for sericic acid and sericoside was as follows: […]

[6] = test system: Carragenin-induced oedema; assay: Anti-inflammatory activity against carragenin-induced oedema in rats, oral administration; format: in vivo; settings: 200 mg/kg orally for 3 days; for Percentage inhibition of the oedema: 3 hours after carragenin; for Volume of oedema (Average ± S.D.): maximum volume 3 hours after carragenin, controls 0.30 ± 0.005
Experimental: as §1, §2
^(1) Doses administered orally for 3 days; on the third day the
administration was effected two hours before the subplantar injection of
^(2) Maximum volume of the oedema measured 3 hours after the
subplantar injection of carragenin.

Experimental wounds = assay: Cicatrizing activity upon experimental wounds in rats (method of Morton & Malone); format: in vivo; settings: for Healing activity compared with the controls: especially in the first days of treatment; for Percentage remargination (Average ± S.D.), Day I / Percentage remargination (Average ± S.D.), Day II / Percentage remargination (Average ± S.D.), Day III / Percentage remargination (Average ± S.D.), Day V / Percentage remargination (Average ± S.D.), Day VI: topical 10% suspension in 2% CMC, 0.1 ml/rat/day; for Percentage remargination (Average ± S.D.), Day I: control 5.2 ± 1.1; for Percentage remargination (Average ± S.D.), Day II: control 12.8 ± 1.5; for Percentage remargination (Average ± S.D.), Day III: control 21.9 ± 3.1; for Percentage remargination (Average ± S.D.), Day V: control 39.63 ± 2.3; for Percentage remargination (Average ± S.D.), Day VI: control 57.4 ± 2.1
Experimental: Cicatrizing Activity Upon Experimental Wounds in Rats
The cicatrizing activity of sericic acid and sericoside upon experimental wounds was determined on rats in accordance with the method of Morton & Malone (Arch. Int. Pharmacodyn. Ther. 196, 117, 1972).
The treatment of the wounds was effected with a 10% suspension of the active principles in water containing 2% carboxymethyl cellulose (CMC). The suspensions were used in doses of 0.1 ml. for each application, one treatment being effected per day.
Note: Topical treatment effected on each of the days on which measurement
were taken (I, II, III, V, and VI).

[7] = 50 mg/kg endoperitoneally 30 minutes prior to carragenin
[8] = 50 mg/kg endoperitoneally 30 minutes prior to carragenin, controls 0.31 ± 0.006
[9] = 100 mg/kg endoperitoneally 30 minutes prior to carragenin

Compound: CC1(C)CC[C@]2(C(=O)O)CC[C@]3(C)C(=CC[C@@H]4[C@@]5(C)C[C@@H](O)[C@H](O)[C@](C)(CO)[C@@H]5CC[C@]43C)[C@@H]2[C@@H]1O
- Relative solubility [1]: generally more soluble in chlorinated hydrocarbon solvents than in water
- Percentage inhibition of the oedema [2, 7]: 25%
- Volume of the oedema (Average ± S.D.) [2, 8]: 0.23 ± 0.008 mL
- Percentage inhibition of the oedema [2, 9]: 64%
- Volume of the oedema (Average ± S.D.) ([2]; 100 mg/kg endoperitoneally 30 minutes prior to carragenin, controls 0.31 ± 0.010): 0.11 ± 0.006 mL
- Diminution of the ulcer index compared with the controls [3]: 48 per cent
- Number of ulcers of class I ([3]; 200 mg/kg orally, 5 times): 279
- Number of ulcers of class II ([3]; 200 mg/kg orally, 5 times): 12
- Number of ulcers of class III ([3]; 200 mg/kg orally, 5 times): 3
- Number of ulcers of class IV ([3]; 200 mg/kg orally, 5 times): 2
- Number of ulcers of class V ([3]; 200 mg/kg orally, 5 times): 9
- Percentage ulcer variation in relation to controls ([3]; 200 mg/kg orally, 5 times): -45%
- Ulcer Index ([3]; 200 mg/kg orally, 5 times): 45
- Product of the number of ulcers and the numerical value attributed to the class, class I ([3]; 200 mg/kg orally, 5 times): 279
- Product of the number of ulcers and the numerical value attributed to the class, class II ([3]; 200 mg/kg orally, 5 times): 60
- Product of the number of ulcers and the numerical value attributed to the class, class III ([3]; 200 mg/kg orally, 5 times): 30
- Product of the number of ulcers and the numerical value attributed to the class, class IV ([3]; 200 mg/kg orally, 5 times): 40
- Product of the number of ulcers and the numerical value attributed to the class, class V ([3]; 200 mg/kg orally, 5 times): 180
- Erythema Score, 2 h [4]: 0.95 ± 0.12
- Erythema Score, 4 h [4]: 1.80 ± 0.21
- Erythema Score, 6 h [4]: 2.05 ± 0.22
- Erythema Score, 8 h [4]: 1.35 ± 0.18
- Erythema Score, 22 h [4]: 0.60 ± 0.10
- Percentage inhibition of erythema compared with the controls, 2 h [4]: 17.4%
- Percentage inhibition of erythema compared with the controls, 4 h [4]: 25%
- Percentage inhibition of erythema compared with the controls, 6 h [4]: 19.6%
- Percentage inhibition of erythema compared with the controls, 8 h [4]: 42.5%
- Percentage inhibition of erythema compared with the controls, 22 h [4]: 42.8%
- LD50 [5]: > 1000 mg/kg
- Percentage inhibition of the oedema [6]: 23%
- Volume of oedema (Average ± S.D.) [6]: 0.23 ± 0.009 mL
- Healing activity compared with the controls (Experimental wounds): significant healing activity
- Percentage remargination (Average ± S.D.), Day I (Experimental wounds): 10.4 ± 1.3%
- Percentage remargination (Average ± S.D.), Day II (Experimental wounds): 23.7 ± 2.3%
- Percentage remargination (Average ± S.D.), Day III (Experimental wounds): 36.9 ± 2.7%
- Percentage remargination (Average ± S.D.), Day V (Experimental wounds): 48.00 ± 1.5%
- Percentage remargination (Average ± S.D.), Day VI (Experimental wounds): 59.0 ± 2.2%

Compound: CC1(C)CC[C@]2(C(=O)OC3O[C@H](CO)[C@@H](O)[C@H](O)[C@H]3O)CC[C@]3(C)C(=CC[C@@H]4[C@@]5(C)C[C@@H](O)[C@H](O)[C@](C)(CO)[C@@H]5CC[C@]43C)[C@@H]2[C@@H]1O (some centres unmarked)
- Relative solubility [1]: generally more soluble in aqueous solvents than chlorinated hydrocarbons
- Percentage inhibition of the oedema [2, 7]: 35%
- Volume of the oedema (Average ± S.D.) [2, 8]: 0.20 ± 0.005 mL
- Percentage inhibition of the oedema [2, 9]: 67%
- Diminution of the ulcer index compared with the controls [3]: 45 per cent
- Number of non-ulcerated stomachs (per cent) ([3]; 200 mg/kg orally, 5 times): 7.6 per cent
- Number of ulcers of class I ([3]; 200 mg/kg orally, 5 times): 369
- Number of ulcers of class II ([3]; 200 mg/kg orally, 5 times): 15
- Number of ulcers of class III ([3]; 200 mg/kg orally, 5 times): 1
- Number of ulcers of class IV ([3]; 200 mg/kg orally, 5 times): 0
- Number of ulcers of class V ([3]; 200 mg/kg orally, 5 times): 3
- Percentage ulcer variation in relation to controls ([3]; 200 mg/kg orally, 5 times): -48%
- Ulcer Index ([3]; 200 mg/kg orally, 5 times): 39.5
- Product of the number of ulcers and the numerical value attributed to the class, class I ([3]; 200 mg/kg orally, 5 times): 369
- Product of the number of ulcers and the numerical value attributed to the class, class II ([3]; 200 mg/kg orally, 5 times): 75
- Product of the number of ulcers and the numerical value attributed to the class, class III ([3]; 200 mg/kg orally, 5 times): 10
- Product of the number of ulcers and the numerical value attributed to the class, class IV ([3]; 200 mg/kg orally, 5 times): 0
- Product of the number of ulcers and the numerical value attributed to the class, class V ([3]; 200 mg/kg orally, 5 times): 60
- Erythema Score, 2 h [4]: 0.75 ± 0.17
- Erythema Score, 4 h [4]: 1.70 ± 0.23
- Erythema Score, 6 h [4]: 1.95 ± 0.22
- Erythema Score, 8 h [4]: 1.30 ± 0.25
- Erythema Score, 22 h [4]: 0.70 ± 0.15
- Percentage inhibition of erythema compared with the controls, 2 h [4]: 34.8%
- Percentage inhibition of erythema compared with the controls, 4 h [4]: 29.2%
- Percentage inhibition of erythema compared with the controls, 6 h [4]: 23.5%
- Percentage inhibition of erythema compared with the controls, 8 h [4]: 44.7%
- Percentage inhibition of erythema compared with the controls, 22 h [4]: 33.3%
- LD50 [5]: > 1000 mg/kg
- Percentage inhibition of the oedema [6]: 26%
- Volume of oedema (Average ± S.D.) [6]: 0.22 ± 0.010 mL
- Healing activity compared with the controls (Experimental wounds): significant healing activity
- Percentage remargination (Average ± S.D.), Day I (Experimental wounds): 13.9 ± 1.4%
- Percentage remargination (Average ± S.D.), Day II (Experimental wounds): 23.7 ± 1.5%
- Percentage remargination (Average ± S.D.), Day III (Experimental wounds): 36.8 ± 2.0%
- Percentage remargination (Average ± S.D.), Day V (Experimental wounds): 53.30 ± 2.8%
- Percentage remargination (Average ± S.D.), Day VI (Experimental wounds): 68.2 ± 2.1%
